Activity, GI50 and TGI data for two compounds are collected here from ChEMBL document CHEMBL1150219, “New co-metabolites of the streptazolin pathway” (2001).

In assay [1] the test system is HepG2. Nature of the assay: Cytotoxicity against human HepG2 cells at 50 umol/L. Format: functional, cell-based.
The subject of another assay is HMO2. Description: Cytotoxicity against human HMO2 cells at 50 umol/L. Type of assay: functional, cell-based.
In assay [2] the test system is MCF7. Description: Cytotoxicity against human MCF7 cells at 50 umol/L. Type of assay: functional, cell-based.
Assay [3] is described as follows: Cytotoxicity against human KATO III cells. Format: functional, KATO III cell.
The test system of assay [4] is MCF7. Nature of the assay: Cytotoxicity against human MCF7 cells. Format: functional.
Assay [5] can be described thus: Cytotoxicity against human HMO2 cells. Format: functional.
Assay [6] relates to HepG2. Description: Cytotoxicity against human HepG2 cells. Type of assay: functional.

The structures appear in SMILES notation. Active and inactive are the calls of the source. No cut-off for these calls is given here.

For `C/C=C1/C2=CCCN3C(=O)O[C@H]([C@H]1O)[C@H]23`, the result in the assay with HepG2 [1], in the assay with HMO2 and in the assay on MCF7 [2] was inactive.

Broadly, the GI50 is the concentration at which growth is held to half of that of the control. Higher therefore signals lower sensitivity of the cells. Usually TGI stands for the concentration at which net growth stops. A higher TGI goes with less potent growth arrest. As to `C/C=C1/C2=CCCN3C(=O)O[C@H]([C@H]1O[C@@H]1OC[C@@H](O)[C@H](O)[C@H]1O)[C@H]23`, the GI50 stood at 700 nM in assay [3], 10000 nM in the assay on MCF7 [4], 150 nM in assay [5] and 300 nM in the assay on HepG2 [6]. The TGI in assay [3] is 1000 nM; in the assay with MCF7 [4], 30000 nM; in assay [5] it was above 50000 nM; with HepG2 [6] it was 5000 nM.
